Data published in US5561042A, “Diamine platinum naphthalimide complexes as antitumor agents” (Cancer Therapy and Research Center, priority 1995, dated 1996).
pIC50: −log10 of the molar value.

What was measured:
[1] = tested on: HT29 Human Colon Carcinoma cell line; assay: In vitro growth inhibition (MTT), HT29 colon carcinoma; type: cell-based; conditions: 6 days
From the text: (§1) P388 murine leukemic cell line was obtained from the DCT Tumor Repository (National Cancer Institute, Frederick Cancer Research and Development, Frederick Md. 21702). HT29 Human Colon Carcinoma cell line was obtained from the American Type Culture Collection (12301 Parklawn Drive, Rockville, Md. 20852). B16 Melanoma cell line was obtained from DuPont Merck Pharmaceutical Company (Glenolden, Pa. 19036). MCF-7 Human Breast Carcinoma cell line was a gift from Dr. K. Osborne (Department of Medicine, The University of Texas Health Science Center at San Antonio, San Antonio, Tex. 78284). All cell lines were incubated at 37° C. in a humidified atmosphere of 5% CO2 -95% air. Murine B16 melanoma cell line was grown in RPMI 1640 medium supplemented with 10% heat-inactivated fetal bovine serum, 2 mM L-glutamine, 50 units/ml penicillin, 50 μg/ml streptomycin, 25 μg/ml gentamycin, 0.75% sodium bicarbonate, 10 mM HEPES buffer (pH 7.4), and 0.06 mg/ml AntiPPLO. Murine P388 leukemic and the human HT-29 colon adenocarcinoma cell lines were maintained in RPMI 1640 medium supplemented with 10% heat-inactivated fetal bovine serum. MCF-7M human breast adenocarcinoma was maintained in IMEM medium supplemented with 5% non heat-inactivated fetal bovine serum and 1 nM insulin.
(§2) Exponentially growing cells (1-2×10^3 cells, unless specified otherwise) in 0.1 ml medium were seeded on day 0 in a 96-well microtiter plate. On day 1, 0.1 ml aliquots of medium containing graded concentrations of test compounds were added in duplicate to the cell plates. After incubation at 37° C. in a humidified incubator for 3 days (P388, B16) or 6 days (HT-29, MCF-7M), the plates were centrifuged briefly and 100 μl of the growth medium was removed. Cell cultures were incubated with 50 μl of 3-(4,5-dimethylthiazol-2-yl)-2,5-diphenyl-tetrazolium bromide [MTT, 1 mg/ml in Dulbecco's phosphate buffered saline (PBS)] for 4 hr at 37° C. The resulting purple formazan precipitate was solubilized with 200 μl of 0.04N HCl in isopropyl alcohol. Absorbance was monitored in a BioRad Model 3550 Microplate Reader at a test wavelength of 570 nm and a reference wavelength of 630 nm. The absorbance was transferred to a PC 486 computer. The IC50 values were determined by a computer program (EZ-ED50) that fit all of the data to the following four-parameterlogistic equation:
(§3) Y=((Am -Ao)/(1+(X/IC50)^n))+Ao
(§4) where Am is the absorbance of control cells, Ao is the absorbance of cells in the presence of highest agent concentration, Y is the observed absorbance, X is the agent concentration, IC50 is the concentration of agent that inhibits the cell growth by 50% of control cells (based on the absorbance) and n is the slope of the curve.

[2] = tested on: Murine B16 melanoma cell line; assay: In vitro growth inhibition (MTT), B16 melanoma; type: cell-based; conditions: MTT, 3 days
From the text: as §1, §2, §3, §4

[3] = tested on: poly (dG.dC) - poly (dG.dC); assay: Ethidium bromide displacement, poly(dG.dC)-poly(dG.dC); type: binding
Description: (§5) A 10× Binding solution was prepared by combining 0.93 ml of an aqueous NaCl solution (5M), 2.0 ml of an aqueous Tris HCl (500 mM) solution, 0.1 ml of an EDTA solution (500 mM) and 46.97 ml of water. The resultant solution was 93 mM in NaCl, 20 mM in Tris HCl, and 1 mM in EDTA. Stock DNA solution were prepared as follows: Poly (dG·dC)-(dG·dC) (ε254=8.4/mM; 27-7910-02), poly(dA·dT)-(dA·dT) (ε262=6.6/mM; 27-7870-02), and lambda DNA (ε260-7.0/mM; 27-4111-01) were purchased from Pharmacia. Solutions were prepared by resuspending either poly (dG·dC)-(dG·dC) or poly(dA·dT)-(dA·dT)in 1 ml of 10× DNA Binding Solution. Lambda DNA is already in solution as purchased.
(§6) Poly (dG·dC)-(dG·dC), poly(dA·dt)-(dA·dt) and lambda DNA concentrations were determined as follows: 980 μl of 10× DNA Binding Solution was pipetted into a 1 ml cuvette. A blank was run on the UV spectrophotometer. 20 μl of the DNA stock of unknown concentration was then added into the cuvette. The sample was then scanned between 210 nm to 500 nm and the absorbance recorded at 254 nm for poly(dG·dC)-(dG·dC), at 262 nm for poly(dA·dT)-(dA·dT) and at 260 nm for lambda DNA. The solution was transferred to a clean tube. This procedure was followed for three different solutions with the absorbance taken as the average of the three. The concentration of poly(dG·dC)-(dG·dC) stock was calculated to be A254 /8.4×1000 (in μM). The concentration of poly(dA·dT)-(dA·dT) stock was calculated to be A262 /6.6×1000 (in μM). The concentration of lambda DNA stock was calculated to be A260 /7.0×1000 (in μM).
(§7) The binding of the bis-naphthalimides to DNA and to synthetic polynucleotide duplexes was determined by an ethidium bromide displacement assay that measures the reduction of fluorescence when ethidium bromide is displaced from DNA (Baguley, 1981). The fluorescence intensity of a 3 ml solution containing 9.3 mM NaCl, 2 mM Tris-HCl (pH 7.0), 100 μM EDTA, 1 μM DNA (in nucleotides) and 1.26 μM ethidium bromide in a quartz cuvette was measured at the excitation (546 nm) and emission (600 nm) wavelengths on a Shimadzu RF5000U spectrofluorometer. Graded concentrations of agent were then added and the fluorescence intensity was measured. The concentration of compound required to reduce the fluorescence intensity by 50% of that of control (FI50) was determined. Therefore, the lower the FI50 the stronger the binding affinity a particular compound has for DNA.
(§8) The ability of bis-naphthalimides of the present invention and the known anti-cancer agents compound 22 and DMP840, (R,R)-2,2'[1,2-ethanediylbis[imino(1-methyl-2,1-ethanediyl)]]-bis[5-nitro- 1H benz[de]isoquinoline-1,3-(2H)dione]dimethanesulfonate, to bind to DNA and to synthetic oligonucleotide duplexes was measured using an ethidium bromide displacement assay. Ethidium bromide, a known DNA intercalator, has no fluorescence in the absence of DNA; however, fluorescence intensity increases when ethidium bromide binds to DNA. The ethidium bromide displacement assay measures the decrease in fluorescence intensity caused by DNA-bound ethidium bromide with DNA interacting agents.

[4] = tested on: MCF-7 Human Breast Carcinoma cell line; assay: In vitro growth inhibition (MTT), MCF-7 breast carcinoma; type: cell-based; conditions: 6 days
From the text: as §1, §2, §3, §4

[5] = target: poly (dA.dT) - poly (dA.dT); assay: Ethidium bromide displacement, poly(dA.dT)-poly(dA.dT); type: binding; conditions: 1 μM DNA, 1.26 μM ethidium bromide, pH 7.0, read-out: FI50, poly (dA.dT) - poly (dA.dT)
Description: as §5, §6, §7, §8

8-(3'-nitro-1',8'-naphthalimide)-3,6-diazaoctylamine dichloroplatinum(II) [Compound 21]
pIC50 [1]: 6.89
pIC50 [2]: 6.41
Ratio (AT/GC) ([3]; FI50 poly(dA.dT)-poly(dA.dT) / FI50 poly(dG.dC)-poly(dG.dC)): 0.72
pIC50 ([3]; ethidium bromide displacement, 1 μM DNA, 1.26 μM ethidium bromide, pH 7.0, read-out: FI50, poly (dG.dC) - poly (dG.dC)): 6.62
pIC50 [4]: 7.18
pIC50 [5]: 6.76
